From publication PMC5175178, “Development of an in-vivo active reversible butyrylcholinesterase inhibitor” (Scientific Reports, 2016)

Assays:
mAChE = biological target: T1, mAChE (Mus musculus, UniProt P21836); test: In-vitro inhibitory activity against mAChE, method of Ellman; type: biochemical, murine
T1 construct: donated by Florian Nachon (IBS, Grenoble)
T1 sequence (P21836 32-614): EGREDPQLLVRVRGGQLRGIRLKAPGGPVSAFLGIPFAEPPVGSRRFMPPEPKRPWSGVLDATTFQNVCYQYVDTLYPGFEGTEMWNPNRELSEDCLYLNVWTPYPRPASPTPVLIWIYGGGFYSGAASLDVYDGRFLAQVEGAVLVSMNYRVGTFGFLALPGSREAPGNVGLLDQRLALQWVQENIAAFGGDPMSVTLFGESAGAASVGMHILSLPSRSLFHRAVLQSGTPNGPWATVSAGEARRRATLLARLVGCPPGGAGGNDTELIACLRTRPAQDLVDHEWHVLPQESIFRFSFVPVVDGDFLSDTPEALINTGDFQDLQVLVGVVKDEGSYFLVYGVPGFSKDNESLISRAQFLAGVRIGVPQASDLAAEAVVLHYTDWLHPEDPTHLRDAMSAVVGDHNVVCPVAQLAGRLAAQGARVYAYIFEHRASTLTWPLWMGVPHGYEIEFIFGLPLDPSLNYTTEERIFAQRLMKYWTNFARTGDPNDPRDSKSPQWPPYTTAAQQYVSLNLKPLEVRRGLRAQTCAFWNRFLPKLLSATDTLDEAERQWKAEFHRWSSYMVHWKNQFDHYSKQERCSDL
Procedure: The inhibitory potencies of the compounds against the ChEs were determined using the method of Ellman[32].
The enzyme solutions were prepared by dilution of the concentrated stocks in phosphate-buffered solution (0.1 M, pH 8.0). […] The reactions were started by addition of the substrate, at room temperature. The final content of the organic solvent (DMSO) was always 1%. […] To determine the blank value (b), phosphate-buffered solution replaced the enzyme solution. The initial velocity (v0) was calculated from the slope of the linear trend obtained, with each measurement carried out in triplicate. […] The compounds were added to each well at a final concentration of 10 μM. […] The initial velocities in the presence of the test compounds (vi) were calculated. The inhibitory potencies are expressed as the residual activities (RA = (vi – b) / (vo – b)). […] The IC50 values were obtained by plotting the residual enzyme activities against the applied inhibitor concentrations, with the experimental data fitted to Equation (1):
where X is the logarithm of the inhibitor concentration, and Y is the residual activity. For the fitting procedure, the Gnuplot software and an in-house python script were used.

mice = test: Rotarod test, motor coordination; conditions: for Time spent on the rotarod (s ±SEM) 6 rpm / Time spent on the rotarod (s ±SEM) 18 rpm / Time spent on the rotarod (s ±SEM) 24 rpm: 60 min
Procedure: The mice had free access to food and water, and the ambient temperature and humidity of the room were kept constant throughout all of the tests. For the behavioral tasks, the mice were selected at random, and each group consisted of 8 to 10 mice dose^−1. The experiments were performed between 08:00 and 14:00. Immediately after these in-vivo assays, the animals were euthanized by cervical dislocation. […] All efforts were made to minimize the number of mice used and their suffering.
Before the test, the mice were trained for three consecutive days on the rotarod apparatus (Rotarod apparatus, May Commat RR0711, Turkey; rod diameter, 2 cm) that was rotating at a fixed speed of 18 rotations per minute (rpm). In each training session, the mice were put on the rotating rod for 3 min, with an unlimited number of trials. The correct experimentation was performed 24 h after the last training session. […] Motor impairments were defined as the inability to remain on the rotarod apparatus for 1 min, and were expressed as the mean time spent on the rotarod^36.

## COCCN(CC1CCCN(Cc2ccccc2)C1)S(=O)(=O)c1ccc2ccccc2c1 (racemic) [compound 2, (±)-N-((1-benzylpiperidin-3-yl)methyl)-N-(2-methoxyethyl)naphthalene-2-sulfonamide]
mAChE; residual activity at 10 μM, %RA > 75% was considered as no inhibition, Table 1
  %RA at 10 µM ±SEM mAChE: 97% ± 2%
mAChE; residual activity at 10 µM, %RA >75% was considered no inhibition, Supplementary Table 1
  %RA at 10 µM ±SEM mAChE: 97% ±2%
mice; 30 mg kg^-1 IP
  Time spent on the rotarod (s ±SEM) 6 rpm: 60.0 s
  Time spent on the rotarod (s ±SEM) 18 rpm: 60.0 s
  Time spent on the rotarod (s ±SEM) 24 rpm: 60 s
mice; 100 mg kg^-1 IP
  Time spent on the rotarod (s ±SEM) 6 rpm: 60.0 s
  Time spent on the rotarod (s ±SEM) 18 rpm: 53.3 ± 6.8 s
  Time spent on the rotarod (s ±SEM) 24 rpm: 52.3 ± 6.8 s
mice; even at 100 mg kg^−1
  impact on motor coordination: did not induce motor deficits
